The record followed here is patent publication US20130053381A1, “2,4-DIOXO-1,4-DIHYDRO-2H-QUINAZOLIN-3-YL-SULFONAMIDE DERIVATIVES” (NOVARTIS AG, priority 2010, published 2013).

Like-named read-outs stand apart in the source and are kept apart here.

The experiment relates to OF1 mice. Description: Maximal electroshock test (MES Test). It is filed as in vivo. The following applies: Mus musculus, po, 50 mg/kg, p.o., read-out: %-Protection. The method, boiled down:
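Compound given p.o. (typically 50 mg/kg) 1 h before tonic-clonic convulsions were induced via temporal electrodes (50 Hz, 18 mA, 0.2 s); seizure lasting 3 s or less counted as protection. Read-out is percent protected of five mice per condition; ED50 calculated, blood exposure sampled after shock.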
A general note: The maximal electroshock test induces tonic seizures with an electrical stimulus.

Where [1] appears, read: pre-treatment time −2 h (footnote a).
[2] abbreviates: pre-treatment time −0.5 h (footnote d).

As to `CC(C)CC(=O)N(n1c(=O)[nH]c2cc(C(F)(F)F)c(-n3cnnc3)cc2c1=O)S(C)(=O)=O` [Example 9.01, N-(2,4-Dioxo-6-[1,2,4]triazol-4-yl-7-trifluoromethyl-1,4-dihydro-2H-quinazolin-3-yl)-N-(3-methyl-butyryl)-methanesulfonamide], under setting [1], the responders at 50 mg/kg was found to be 40%.
Regarding `CCCCCC(=O)N(n1c(=O)[nH]c2cc(C(F)(F)F)c(-n3cnnc3)cc2c1=O)S(C)(=O)=O` [Example 9.02, N-(2,4-Dioxo-6-[1,2,4]triazol-4-yl-7-trifluoromethyl-1,4-dihydro-2H-quinazolin-3-yl)-N-hexanoyl-methanesulfonamide], the responders at 50 mg/kg under setting [1] is 20%.
For the compound `CCCCC(=O)N(n1c(=O)[nH]c2cc(C(F)(F)F)c(-n3cnnc3)cc2c1=O)S(C)(=O)=O` [Example 9.03, N-(2,4-Dioxo-6-[1,2,4]triazol-4-yl-7-trifluoromethyl-1,4-dihydro-2H-quinazolin-3-yl)-N-pentanoyl-methanesulfonamide], the responders at 50 mg/kg (pre-treatment time −1 h) worked out at 20%.
Turning to `CCCC(=O)N(n1c(=O)[nH]c2cc(C(F)(F)F)c(-n3cnnc3)cc2c1=O)S(C)(=O)=O` [Example 9.04, N-Butyryl-N-(2,4-dioxo-6-[1,2,4]triazol-4-yl-7-trifluoromethyl-1,4-dihydro-2H-quinazolin-3-yl)-methanesulfonamide], under setting [1], the responders at 50 mg/kg amounted to 20%.
On to `CC(=O)N(n1c(=O)[nH]c2cc(C(F)(F)F)c([C@H]3CCCO3)cc2c1=O)S(C)(=O)=O` [Example 10.01, N-Acetyl-N—((R)-2,4-dioxo-6-tetrahydro-furan-2-yl-7-trifluoromethyl-1,4-dihydro-2H-quinazolin-3-yl)-methanesulfonamide], for which the responders at 50 mg/kg amounted to 40% under setting [2] and 80% (pre-treatment time −1 h).
Regarding `CCC(=O)N(n1c(=O)[nH]c2cc(C(F)(F)F)c([C@H]3CCCO3)cc2c1=O)S(C)(=O)=O` [Example 10.02, N—((R)-2,4-Dioxo-6-tetrahydro-furan-2-yl-7-trifluoromethyl-1,4-dihydro-2H-quinazolin-3-yl)-N-propionyl-methanesulfonamide], the responders at 50 mg/kg is, setting by setting: under setting [2], 60%; (pre-treatment time −1 h) 60%.
For `CCCC(=O)N(n1c(=O)[nH]c2cc(C(F)(F)F)c([C@H]3CCCO3)cc2c1=O)S(C)(=O)=O` [Example 10.03], the responders at 50 mg/kg is 60% under setting [2] and 100% (pre-treatment time −1 h).
For the compound `COC(=O)N(n1c(=O)[nH]c2cc(C(F)(F)F)c([C@H]3CCCO3)cc2c1=O)S(C)(=O)=O` [Example 10.04, Methanesulfonyl-N—((R)-2,4-dioxo-6-tetrahydro-furan-2-yl-7-trifluoromethyl-1,4-dihydro-2H-quinazolin-3-yl)-carbamic acid methyl ester], the responders at 50 mg/kg (pre-treatment time −1 h) was found to be 20%.
The same measure, in the same setting: as for `CCOC(=O)N(n1c(=O)[nH]c2cc(C(F)(F)F)c([C@H]3CCCO3)cc2c1=O)S(C)(=O)=O` [Example 10.05, Methanesulfonyl-N—((R)-2,4-dioxo-6-tetrahydro-furan-2-yl-7-trifluoromethyl-1,4-dihydro-2H-quinazolin-3-yl)-carbamic acid ethyl ester], the figure is 40%.
For the compound `CCCCOC(=O)N(n1c(=O)[nH]c2cc(C(F)(F)F)c([C@H]3CCCO3)cc2c1=O)S(C)(=O)=O` [Example 10.06, Methanesulfonyl-N—((R)-2,4-dioxo-6-tetrahydro-furan-2-yl-7-trifluoromethyl-1,4-dihydro-2H-quinazolin-3-yl)-carbamic acid butyl ester], the responders at 50 mg/kg (pre-treatment time −1 h) was 40%.
As for `COCCOC(=O)N(n1c(=O)[nH]c2cc(C(F)(F)F)c([C@H]3CCCO3)cc2c1=O)S(C)(=O)=O` [Example 10.07, Methanesulfonyl-N—((R)-2,4-dioxo-6-tetrahydro-furan-2-yl-7-trifluoromethyl-1,4-dihydro-2H-quinazolin-3-yl)-carbamic acid 2-methoxy-ethyl ester], for the setting “pre-treatment time −1 h”, the responders at 50 mg/kg turned out to be 60%.
Consider `CC(C)COC(=O)N(n1c(=O)[nH]c2cc(C(F)(F)F)c([C@H]3CCCO3)cc2c1=O)S(C)(=O)=O` [Example 10.08, Methanesulfonyl-N—((R)-2,4-dioxo-6-tetrahydro-furan-2-yl-7-trifluoromethyl-1,4-dihydro-2H-quinazolin-3-yl)-carbamic acid isobutyl ester], for which, where the note is “pre-treatment time −1 h”, the responders at 50 mg/kg amounted to 20%.
The same measure, in the same setting: as for `CCCCCC(=O)N(n1c(=O)[nH]c2cc(C(F)(F)F)c([C@H]3CCCO3)cc2c1=O)S(C)(=O)=O` [Example 10.09, N—((R)-2,4-Dioxo-6-tetrahydro-furan-2-yl-7-trifluoromethyl-1,4-dihydro-2H-quinazolin-3-yl)-N-hexanoyl-methanesulfonamide], the figure is 60%.
As for `CCOC(=O)CCC(=O)N(n1c(=O)[nH]c2cc(C(F)(F)F)c([C@H]3CCCO3)cc2c1=O)S(C)(=O)=O` [Example 10.10], for the setting “pre-treatment time −1 h”, the responders at 50 mg/kg was found to be 20%.
Consider `CCCCC(=O)N(n1c(=O)[nH]c2cc(C(F)(F)F)c([C@H]3CCCO3)cc2c1=O)S(C)(=O)=O` [Example 10.11, N—((R)-2,4-Dioxo-6-tetrahydro-furan-2-yl-7-trifluoromethyl-1,4-dihydro-2H-quinazolin-3-yl)-N-pentanoyl-methanesulfonamide], for which the responders at 50 mg/kg (pre-treatment time −1 h) is 20%.
On to `CCC(OC)c1cc2c(=O)n(N(C(=O)OCCOC)S(C)(=O)=O)c(=O)[nH]c2cc1C(F)(F)F` (stereo not shown) [Example 11.01, Methanesulfonyl-[6-(1-methoxy-propyl)-2,4-dioxo-7-trifluoromethyl-1,4-dihydro-2H-quinazolin-3-yl]-carbamic acid 2-methoxy-ethyl ester], for which the responders at 50 mg/kg (pre-treatment time −1 h) was determined as 60%.
With `CCC(=O)N(n1c(=O)[nH]c2cc(C(F)(F)F)c(C(CC)OC)cc2c1=O)S(C)(=O)=O` (stereo not shown) [Example 11.02, N-[6-(1-Methoxy-propyl)-2,4-dioxo-7-trifluoromethyl-1,4-dihydro-2H-quinazolin-3-yl]-N-propionyl-methanesulfonamide], the responders at 50 mg/kg (pre-treatment time −1 h) amounted to 100%.
Still for that read-out and setting: as for `CCOC(=O)N(n1c(=O)[nH]c2cc(C(F)(F)F)c(C(CC)OC)cc2c1=O)S(C)(=O)=O` (stereo not shown) [Example 11.03, Methanesulfonyl-[6-(1-methoxy-propyl)-2,4-dioxo-7-trifluoromethyl-1,4-dihydro-2H-quinazolin-3-yl]-carbamic acid ethyl ester], the figure is 80%; as for `CCCOC(=O)N(n1c(=O)[nH]c2cc(C(F)(F)F)c(C(CC)OC)cc2c1=O)S(C)(=O)=O` (stereo not shown) [Example 11.04, Methanesulfonyl-[6-(1-methoxy-propyl)-2,4-dioxo-7-trifluoromethyl-1,4-dihydro-2H-quinazolin-3-yl]-carbamic acid propyl ester], 20%.
For `CCCCCC(=O)N(n1c(=O)[nH]c2cc(C(F)(F)F)c(C(CC)OC)cc2c1=O)S(C)(=O)=O` (stereo not shown) [Example 11.05, N-Hexanoyl-N-[6-(1-Methoxy-propyl)-2,4-dioxo-7-trifluoromethyl-1,4-dihydro-2H-quinazolin-3-yl]-methanesulfonamide], the responders at 50 mg/kg (pre-treatment time −1 h) was determined as 80%.
As to `CCC(OC)c1cc2c(=O)n(N(C(=O)C(C)C)S(C)(=O)=O)c(=O)[nH]c2cc1C(F)(F)F` (stereo not shown) [Example 11.06, N-Isobutyryl-N-[6-(1-methoxy-propyl)-2,4-dioxo-7-trifluoromethyl-1,4-dihydro-2H-quinazolin-3-yl]-methanesulfonamide], the responders at 50 mg/kg (pre-treatment time −1 h) came out at 100%.
Regarding `CCCC(=O)N(n1c(=O)[nH]c2cc(C(F)(F)F)c(C(CC)OC)cc2c1=O)S(C)(=O)=O` (stereo not shown) [Example 11.07, N-Butyryl-N-[6-(1-methoxy-propyl)-2,4-dioxo-7-trifluoromethyl-1,4-dihydro-2H-quinazolin-3-yl]-methanesulfonamide], the responders at 50 mg/kg (pre-treatment time −1 h) was found to be 100%.
With `CCC(OC)c1cc2c(=O)n(N(C(C)=O)S(C)(=O)=O)c(=O)[nH]c2cc1C(F)(F)F` (stereo not shown) [Example 11.08, N-Acetyl-N-[6-(1-methoxy-propyl)-2,4-dioxo-7-trifluoromethyl-1,4-dihydro-2H-quinazolin-3-yl]-methanesulfonamide], the responders at 50 mg/kg (pre-treatment time −1 h) was determined as 80%.
Still for that read-out and setting: as for `CCC(OC)c1cc2c(=O)n(N(C(=O)OC)S(C)(=O)=O)c(=O)[nH]c2cc1C(F)(F)F` (stereo not shown) [Example 11.09, Methanesulfonyl-[6-(1-methoxy-propyl)-2,4-dioxo-7-trifluoromethyl-1,4-dihydro-2H-quinazolin-3-yl]-carbamic acid methyl ester], the figure is 80%; as for `CCC(OC)c1cc2c(=O)n(N(C(=O)OCC(C)C)S(C)(=O)=O)c(=O)[nH]c2cc1C(F)(F)F` (stereo not shown) [Example 11.10, Methanesulfonyl-[6-(1-methoxy-propyl)-2,4-dioxo-7-trifluoromethyl-1,4-dihydro-2H-quinazolin-3-yl]-carbamic acid isobutyl ester], 100%; as for `CCCCOC(=O)N(n1c(=O)[nH]c2cc(C(F)(F)F)c(C(CC)OC)cc2c1=O)S(C)(=O)=O` (stereo not shown) [Example 11.11, Methanesulfonyl-[6-(1-methoxy-propyl)-2,4-dioxo-7-trifluoromethyl-1,4-dihydro-2H-quinazolin-3-yl]-carbamic acid butyl ester], 60%.
`CCCCCOC(=O)N(n1c(=O)[nH]c2cc(C(F)(F)F)c(C(CC)OC)cc2c1=O)S(C)(=O)=O` (stereo not shown) [Example 11.12, Methanesulfonyl-[6-(1-methoxy-propyl)-2,4-dioxo-7-trifluoromethyl-1,4-dihydro-2H-quinazolin-3-yl]-carbamic acid pentyl ester]: the responders at 50 mg/kg (pre-treatment time −1 h) stood at 20%.
Take `CCCCCCOC(=O)N(n1c(=O)[nH]c2cc(C(F)(F)F)c(C(CC)OC)cc2c1=O)S(C)(=O)=O` (stereo not shown) [Example 11.13, Methanesulfonyl-[6-(1-methoxy-propyl)-2,4-dioxo-7-trifluoromethyl-1,4-dihydro-2H-quinazolin-3-yl]-carbamic acid hexyl ester]: the responders at 50 mg/kg (pre-treatment time −1 h) was determined as 60%.
